Data set [1] is described as follows: Permeability across human Caco2 cells. Format: ADME, cell-based. Conditions: Caco-2, read-out: permeability.
Data set [2] is described as follows: Octanol-water partition coefficient, log P of the compound. It is filed as physicochemical.
Data set [3] addresses T1, SUMO-activating enzyme (Homo sapiens, UniProt Q9UBT2). Briefly: Inhibition of SUMO E1 (unknown origin) assessed as SUMO E1-SUMO thioester bond formation. It is filed as protein-complex assay.
Data set [4] addresses T2, SUMO-activating enzyme (Homo sapiens) (UniProt Q9UBE0+Q9UBT2). Put plainly: (§1) Inhibition of SUMO E1 (unknown origin)-mediated RanGAP1 sumoylation by immunoblotting analysis. Format: protein-complex assay.
In data set [5] the target is T1, SUMO-activating enzyme. Described as §1. It is filed as protein-complex assay.
The target in data set [6] is T2, SUMO-activating enzyme (Homo sapiens). Put plainly: Inhibition of SUMO E1 (unknown origin)-mediated RanGAP1 sumoylation at 100 uM by immunoblotting analysis. It is filed as protein-complex assay.
For data set [7] the target is unchanged. Put plainly: Inhibition of SUMO E1 (unknown origin)-mediated RanGAP1 sumoylation at < 30 uM by immunoblotting analysis. It is filed as protein-complex assay. On the technique in general: In western blotting, separated proteins are transferred to a membrane and probed.
For data set [8] the target is unchanged. Briefly: Inhibition of SUMO E1 (unknown origin)-biotinylated SUMO-1 thioester complex formation at 10 uM after 20 mins by SDS-PAGE analysis in presence of ATP. Format: protein-complex assay.

pIC50: −log10 of the molar value. Calls of active or inactive are those of the source. The rule behind the calls is not given here.

T1 sequence (Q9UBE0 whole entry): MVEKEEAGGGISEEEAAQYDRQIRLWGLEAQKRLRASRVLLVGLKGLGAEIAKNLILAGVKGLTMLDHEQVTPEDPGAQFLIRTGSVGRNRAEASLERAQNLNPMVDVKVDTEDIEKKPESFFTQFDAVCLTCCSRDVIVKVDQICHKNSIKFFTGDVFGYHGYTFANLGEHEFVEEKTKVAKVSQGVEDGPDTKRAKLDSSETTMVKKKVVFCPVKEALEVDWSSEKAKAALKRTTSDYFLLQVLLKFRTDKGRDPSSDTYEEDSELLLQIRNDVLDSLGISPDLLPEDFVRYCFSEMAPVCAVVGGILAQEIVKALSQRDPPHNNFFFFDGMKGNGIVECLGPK
T1 sequence (Q9UBT2 whole entry): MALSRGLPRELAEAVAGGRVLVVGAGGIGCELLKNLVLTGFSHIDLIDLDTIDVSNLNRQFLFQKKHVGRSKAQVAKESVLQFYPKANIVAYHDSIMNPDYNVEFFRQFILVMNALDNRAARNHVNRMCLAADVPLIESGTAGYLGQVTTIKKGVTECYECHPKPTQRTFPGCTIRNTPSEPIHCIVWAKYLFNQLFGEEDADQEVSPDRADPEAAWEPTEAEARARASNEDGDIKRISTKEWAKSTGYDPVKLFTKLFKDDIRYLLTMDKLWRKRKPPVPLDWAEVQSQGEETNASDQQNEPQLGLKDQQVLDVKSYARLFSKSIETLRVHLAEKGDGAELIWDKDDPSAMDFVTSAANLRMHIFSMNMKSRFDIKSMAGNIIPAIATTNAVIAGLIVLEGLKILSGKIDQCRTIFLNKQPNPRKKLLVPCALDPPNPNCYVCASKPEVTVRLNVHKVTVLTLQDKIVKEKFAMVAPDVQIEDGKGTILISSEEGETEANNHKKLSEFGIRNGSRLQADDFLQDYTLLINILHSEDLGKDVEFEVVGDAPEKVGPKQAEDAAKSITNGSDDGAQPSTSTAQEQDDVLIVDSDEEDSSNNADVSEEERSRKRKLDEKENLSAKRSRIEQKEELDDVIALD

Consider `Cc1cccc(NC(=O)Nc2ccc(Cc3ccc(NC(=O)Nc4cccc(C)c4)cc3)cc2)c1`, for which, in data set [1], the Papp amounted to 35.4 ×10⁻⁶ cm/s. For the same compound, the log partition coefficient (logP) (in general, a log measure of how a compound divides between an organic and an aqueous phase) in data set [2] was determined as 4.8. Further, in data set [3], the negative-log IC50 (pIC50) (usually −log10 of the IC50, conventionally taken in molar units) is 4.84.
For the compound `O=C(Nc1ccc(OCc2ccccc2)cc1)Nc1ccc(Oc2ncnc3cc(Cl)ccc23)nc1`, in data set [4], the inhibition entry was “Dose-dependent effect”. In data set [5], this compound gave a pIC50 of 4.45. Also, the inhibition entry in data set [6] was “Active”.
Regarding `O=C(Nc1ccc(Oc2ncnc3cc(Cl)ccc23)nc1)Nc1cccc(C(F)(F)F)c1`, in data set [4], the inhibition entry was “Dose-dependent effect”. The negative logarithm of the IC50 (pIC50) in data set [5] is 4.45. In addition, the Papp in data set [1] stood at 66.2 ×10⁻⁶ cm/s. Moreover, the inhibition entry in data set [6] was “Active”. For the same compound, the logP in data set [2] was 4.5. Besides, in data set [7], the inhibition entry was “inactive”.
Turning to `O=C(Nc1ccccc1)Nc1ccc(Oc2ncnc3cc(Cl)ccc23)nc1`, in data set [4], the inhibition result was “Dose-dependent effect”. The compound further showed a pIC50 in data set [5] of 4.24. Further, the inhibition entry in data set [6] was “Active”.
Consider `COc1ccc(NC(=O)Nc2ccc(Cc3ccc(NC(=O)Nc4ccc(OC)cc4)cc3)cc2)cc1`, for which, in data set [1], the Papp was determined as 35.3 ×10⁻⁶ cm/s. For the same compound, the logP in data set [2] is 4.4. In data set [3], the negative logarithm of the IC50 (pIC50) was 4.93.
Take `CCCCCC/C=C\CCCCCCCc1cccc(O)c1C(=O)O`: the inhibition entry in data set [8] is “Active”.
As to `N#Cc1ccc(NC(=O)Nc2ccc(Cc3ccc(NC(=O)Nc4ccc(C#N)cc4)cc3)cc2)cc1`, the Papp in data set [1] worked out at 1.52 ×10⁻⁶ cm/s. The same compound had a log partition coefficient (logP) in data set [2] of 2.8. In addition, in data set [3], the pIC50 is 4.95.
As to `O=C(Nc1ccc(F)cc1)Nc1ccc(Oc2ncnc3cc(Cl)ccc23)nc1`, the inhibition entry in data set [4] was “Dose-dependent effect”. Also, in data set [5], the negative logarithm of the IC50 (pIC50) is 4.14. Moreover, the inhibition result in data set [6] is “Active”.
In the case of `COc1ccc(NC(=O)Nc2ccc(Oc3ncnc4cc(Cl)ccc34)nc2)cc1OC1CCCC1`, the inhibition entry in data set [8] and in data set [6] was “Active” throughout. For the same compound, the inhibition entry in data set [4] is “Dose-dependent effect”. Also, the pIC50 in data set [5] was 4.87.

The values are drawn from ChEMBL document CHEMBL2417363, “Identification of quinazolinyloxy biaryl urea as a new class of SUMO activating enzyme 1 inhibitors” (Bioorg Med Chem Lett, 2013).
